The supplement of paper PMC11061612

Assays:
Experiment in all cases: combination Emax (second highest fraction inhibited in the dose matrix, 72 h); higher = more inhibition; extreme values may be limits of the assay
[1] = tested on: B-CPAP (Thyroid Gland Carcinoma)
Summary of the method: (§1)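 Cell lines grown in DMEM/F12 or RPMI with 10% FBS were plated in 1536-well plates and held 24 hours at 37°C, 5% CO2 before 72 hours of exposure to two-drug dose matrices, with DMSO typically at 0.2%. CellTiter-Glo 2.0 luminescence gave viability, which was converted to inhibition. Vehicle wells were set to 0 and blank wells to 1. Combination Emax is the second-highest inhibition in the matrix, and Bliss excess is the observed combination effect minus the expected EA + EB − EA·EB, where EA and EB are the single-agent effects.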

[2] = tested on: CCRF-CEM (T-Lymphoblastic Leukemia)
Summary of the method: as §1

[3] = tested on: DEL (T-Cell Non-Hodgkin's Lymphoma)
Summary of the method: as §1

[4] = tested on: ES4 (Ewing's Sarcoma)
Summary of the method: as §1

[5] = tested on: HCC1806 (Breast Carcinoma)
Summary of the method: as §1

[6] = tested on: HOS (Osteosarcoma)
Summary of the method: as §1

[7] = tested on: HT-1376 (Bladder Carcinoma)
Summary of the method: as §1

[8] = tested on: Hs-578-T (Breast Carcinoma)
Summary of the method: as §1

[9] = tested on: KP-1N (Pancreatic Carcinoma)
Summary of the method: as §1

[10] = tested on: KURAMOCHI (Ovarian Carcinoma)
Summary of the method: as §1

[11] = tested on: LS-180 (Colorectal Carcinoma)
Summary of the method: as §1

[12] = tested on: ME-1 (Acute Myeloid Leukemia)
Summary of the method: as §1

[13] = tested on: RC-K8 (B-Cell Non-Hodgkin's Lymphoma)
Summary of the method: as §1

[14] = tested on: RO82-W-1 (Thyroid Gland Carcinoma)
Summary of the method: as §1

[15] = tested on: SK-ES-1 (Ewing's Sarcoma)
Summary of the method: as §1

[16] = tested on: SNU-5 (Gastric Carcinoma)
Summary of the method: as §1

[17] = tested on: T98G (Glioblastoma)
Summary of the method: as §1

[18] = tested on: TCCSUP (Bladder Carcinoma)
Summary of the method: as §1

[19] = tested on: TE-15 (Esophageal Squamous Cell Carcinoma)
Summary of the method: as §1

[20] = tested on: UM-UC-3 (Bladder Carcinoma)
Summary of the method: as §1

SMILES	combination Emax [1]	combination Emax [2]	combination Emax [3]	combination Emax [4]	combination Emax [5]	combination Emax [6]	combination Emax [7]	combination Emax [8]	combination Emax [9]	combination Emax [10]	combination Emax [11]	combination Emax [12]	combination Emax [13]	combination Emax [14]	combination Emax [15]	combination Emax [16]	combination Emax [17]	combination Emax [18]	combination Emax [19]	combination Emax [20]
CC1(C)CCC(CN2CCN(c3ccc(C(=O)NS(=O)(=O)c4ccc(NCC5CCOCC5)c([N+](=O)[O-])c4)c(Oc4cnc5[nH]ccc5c4)c3)CC2)=C(c2ccc(Cl)cc2)C1 [Venetoclax] + C=CCn1c(=O)c2cnc(Nc3ccc(N4CCN(C)CC4)cc3)nc2n1-c1cccc(C(C)(C)O)n1 [AZD1775] (first compound max 1 µM, partner max 1 µM)	0.502	1	1	0.437	0.912	0.406	0.338	0.909	0.44	0.755	0.42	1	0.815	0.261	0.987	0.557	0.889	0.475	0.796	0.294
CC1(C)CCC(CN2CCN(c3ccc(C(=O)NS(=O)(=O)c4ccc(NCC5CCOCC5)c([N+](=O)[O-])c4)c(Oc4cnc5[nH]ccc5c4)c3)CC2)=C(c2ccc(Cl)cc2)C1 [Venetoclax] + CCN(CCO)CCCOc1ccc2c(Nc3cc(CC(=O)Nc4cccc(F)c4)[nH]n3)ncnc2c1 [AZD2811] (first compound max 1 µM, 7x7, partner max 1 µM)	0.206	1	0.754	0.164	0.212	0.214	0.183	0.802	0.162	0.471	0.244	1	0.423	0.141	1	0.151	0.394	0.311	0.441	0.16
CC1(C)CCC(CN2CCN(c3ccc(C(=O)NS(=O)(=O)c4ccc(NCC5CCOCC5)c([N+](=O)[O-])c4)c(Oc4cnc5[nH]ccc5c4)c3)CC2)=C(c2ccc(Cl)cc2)C1 [Venetoclax] + CN(C)CCCOc1ccc(-c2ccc3ncc4c(c3c2)n(C2CCOCC2)c(=O)n4C)cn1 [AZD0156] (first compound max 1 µM, 7x7, partner max 1 µM)	0.28	0.931	0.192	0.173	0.139	0.152	0.189	0.793	0.138	0.567	0.166	1	0.316	0.126	0.374	0.222	0.332	0.189	0.451	0.252
CC1(C)CCC(CN2CCN(c3ccc(C(=O)NS(=O)(=O)c4ccc(NCC5CCOCC5)c([N+](=O)[O-])c4)c(Oc4cnc5[nH]ccc5c4)c3)CC2)=C(c2ccc(Cl)cc2)C1 [Venetoclax] + COc1cc(Nc2ncc3c(n2)-c2ccc(Cl)cc2C(c2c(F)cccc2OC)=NC3)ccc1C(=O)O [Alisertib] (first compound max 1 µM, 7x7, partner max 10 µM)	0.598	0.992	1	0.233	0.278	0.248	0.246	0.851	0.357	0.474	0.489	1	0.585	0.422	1	0.158	0.556	0.475	0.686	0.399
CC1(C)CCC(CN2CCN(c3ccc(C(=O)NS(=O)(=O)c4ccc(NCC5CCOCC5)c([N+](=O)[O-])c4)c(Oc4cnc5[nH]ccc5c4)c3)CC2)=C(c2ccc(Cl)cc2)C1 [Venetoclax] + C[C@@H]1COCCN1C2=NC(=NC(=C2)C3(CC3)[S@](=N)(=O)C)C4=C5C=CNC5=NC=C4 [AZD6738] (first compound max 1 µM, 7x7, partner max 10 µM)	0.631	1	0.996	0.793	0.938	0.642	0.432	0.909	0.235	0.567	0.728	1	0.837	0.322	0.914	0.934	0.889	0.638	0.796	0.538
CC1(C)CCC(CN2CCN(c3ccc(C(=O)NS(=O)(=O)c4ccc(NCC5CCOCC5)c([N+](=O)[O-])c4)c(Oc4cnc5[nH]ccc5c4)c3)CC2)=C(c2ccc(Cl)cc2)C1 [Venetoclax] + C[C@@H](Nc1cc(F)cc(F)c1)c1cc(C(=O)N(C)C)cc2c(=O)cc(N3CCOCC3)oc12 [AZD8186] (first compound max 1 µM, 7x7, partner max 3 µM)	0.132	0.95	0.312	0.211	0.0952	0.0842	0.0567	0.734	0.235	0.306	0.184	1	0.281	0.217	0.64	0.406	0.411	0.131	0.369	0.164
CC1(C)CCC(CN2CCN(c3ccc(C(=O)NS(=O)(=O)c4ccc(NCC5CCOCC5)c([N+](=O)[O-])c4)c(Oc4cnc5[nH]ccc5c4)c3)CC2)=C(c2ccc(Cl)cc2)C1 [Venetoclax] + Cc1cc2ncnn2cc1Nc1ncc2c(n1)n(C1CCOCC1)c(=O)n2C [AZD7648] (first compound max 1 µM, 7x7, partner max 10 µM)	0.281	0.931	0.457	0.104	0.172	0.204	0.193	0.831	0.108	0.477	0.275	1	0.496	0.224	0.465	0.325	0.352	0.271	0.295	0.139
CC1(C)CCC(CN2CCN(c3ccc(C(=O)NS(=O)(=O)c4ccc(NCC5CCOCC5)c([N+](=O)[O-])c4)c(Oc4cnc5[nH]ccc5c4)c3)CC2)=C(c2ccc(Cl)cc2)C1 [Venetoclax] + Cn1cnc2c(F)c(Nc3ccc(Br)cc3Cl)c(C(=O)NOCCO)cc21 [Selumetinib] (first compound max 1 µM, 7x7, partner max 3 µM)	0.241	0.926	0.382	0.0348	0.359	0.089	0.163	0.822	0.191	0.502	0.476	1	0.227	0.116	0.285	0.453	0.163	0.136	0.263	0.189
